# According to patent US5910502A, “Use of levobupivacaine in paediatric surgery” (priority 1997, dated 1999):
# Where a name gives a salt, the structure may show the parent alone.
# How the values were obtained:
# [1] = tested on: tk locus (5-trifluorothymidine resistance) in mouse lymphoma cells; test: Mutation at the tk locus (5-trifluorothymidine resistance) in mouse lymphoma cells, fluctuation protocol, with and without S-9
# Description: (§1) More specifically, levobupivacaine HCl was assayed for its ability to induce mutation at the tk locus (5-trifluorothymidine resistance) in mouse lymphoma cells using a fluctuation protocol. The study consisted of a cytotoxicity range-finder followed by two independent experiments, each conducted in the absence and presence of metabolic activation by an Aroclor 1254-induced rat liver post-mitochondrial fraction (S-9). For reference, bupivacaine HCl was tested concurrently in the cytotoxicity range-finder.
# For reference, three doses of bupivacaine HCl were tested in the absence of S-9 (250, 500 and 750 μg/ml), and two doses in the presence of S-9 (250, 500 μg/ml). The lowest five doses of levobupivacaine HCl and all reference doses of bupivacaine HCl were selected to determined viability and 5-trifluorothymidine resistance, 2 days after treatment.
# In the second experiment, the dose range was modified slightly for both levobupivacaine HCl and bupivacaine HCl.
# Negative (solvent) and positive control treatments were included in each mutation experiment in the absence and presence of S-9.
# [2] = tested on: heart; central nervous system (CNS); conditions: cited from earlier work
# [3] = Cytotoxicity range-finder (relative survival), with and without S-9; type: cell-based, mouse; conditions: mouse
# Description: as §1
# (§2) A wide range of concentrations were selected for the cytotoxicity range-finder experiments, separated by two-fold intervals and ranging from 31.25 to 1000 μg/ml for levobupivacaine HCl and from 62.5 to 2000 μg/ml for bupivacaine HCl (limited by solubility in both cases).
# mouse lymphoma cells = test: as above; type: cell-based
# Description: as §1, §2
# heart = conditions: in vitro; Vanhoutte et al 1991, Denson et al 1992; cited from earlier work
# [4] = tested on: children having outpatient herniorrhaphy; test: Double-blind randomized placebo-controlled clinical study: IlIH nerve block in children having outpatient herniorrhaphy; type: in vivo, human (children ages 6 mo to 12 y)
# Description: In a clinical study, the suitability of levobupivacaine in paediatric surgery was evaluated. This was a double-blind randomized, placebo-controlled study, to determine the safety and effectiveness of levobupivacaine for field block in children having outpatient herniorrhaphy. More specifically, otherwise healthy children ages 6 mo to 12 y presenting for outpatient herniorrhaphy were randomized to receive either ilioinguinal/iliohytpogastric (IlIH) nerve block(s) with 0.25 ml/kg 0.5% levobupivacaine per side operated, or no block, at the completion of surgery.
# [5] = tested on: patients requiring hernia repair; test: Further study in patients requiring hernia repair: rescue analgesia; type: in vivo, human
# Description: In a further study, using levobupivacaine in patients requiring hernia repair, 45% of patients in the 0.5% levobupivacaine group compared with 73.3% of patients in the no block required at least one dose of rescue analgesia (p=0.167). The majority of the children who required rescue (91.4%) required two or fewer doses of rescue analgesia. […] The median patient in the 0.5% levobupivacaine group first requested rescue medication after at least 118 minutes, compared with 31 minutes in the no block group (p=0.041).
# [6] = 0.25 ml/kg 0.5% per side operated, vs no block
structure (smiles),measurement,setting,value
CCCCN1CCCCC1C(=O)Nc1c(C)cccc1C (racemic) [bupivacaine],"dosage limitation by cytotoxicity, summary",[1],limited by cytotoxicity
same,"genotoxicity, summary",[1],positive for genotoxicity
same,CNS side-effects (in words),[2]; at higher doses,undesirable central nervous system (CNS) side-effects
same,cardiotoxicity (in words),[2]; background,"cardiotoxic, having depressant electrophysiological and mechanical effects on the heart"
same,death in patients (in words),[2]; including women in childbirth and Bier's block,produced death in a number of patients
O=[N+]([O-])c1cc[n+]([O-])c2ccccc12 [4-nitroquinoline 1-oxide],"mutation, positive control",[1]; without S-9,clear increases in mutation
c1ccc2c(c1)cc1ccc3cccc4ccc2c1c34 [benzo[a]pyrene],"mutation, positive control",[1]; with S-9,clear increases in mutation
CCCCN1CCCCC1C(=O)Nc1c(C)cccc1C (stereo not drawn) [bupivacaine HCl],viability,"[3]; absence of S-9, 500 μg/ml",100%
same,viability,"[3]; presence of S-9, 500 μg/ml",12.4%
same,cytotoxicity (in words),"mouse lymphoma cells; bupivacaine HCl (reference), top two doses, 1000 and 2000 μg/ml",completely toxic
CCCCN1CCCC[C@H]1C(=O)Nc1c(C)cccc1C [levobupivacaine HCl],"mutagenicity, overall conclusion",[1],not mutagenic
same,viability,"[3]; absence of S-9, 1000 μg/ml",150%
same,viability,"[3]; presence of S-9, 1000 μg/ml",9.1%
same,cell survival (in words),"mouse lymphoma cells; 31.25 to 1000 μg/ml, absence and presence of S-9",Cells survived all doses
"CCCCN1CCCC[C@H]1C(=O)Nc1c(C)cccc1C [levobupivacaine, (S)-1-butyl-N-(2,6-dimethylphenyl)-2-piperidinecarboxamide]",cardiotoxicity relative to dextrobupivacaine and racemic bupivacaine,heart,less cardiotoxic than dextrobupivacaine and racemic bupivacaine
same,"safety and effectiveness for IlIH block, conclusion",[4]; 0.25 ml/kg 0.5% levobupivacaine per side operated,safe and effective
same,adverse events specifically attributable to levobupivacaine,[4]; 0.25 ml/kg 0.5% per side operated,absence of any adverse events
same,interval to rescue analgesia,[4]; [6],longer interval to rescue analgesia
same,rescue analgesic doses,[4]; [6],fewer rescue analgesic doses
same,CHEOPS,"[4]; at 15, 20, 30 and 60 min, 0.25 ml/kg 0.5% per side operated, vs no block",lower CHEOPS
same,"genotoxicity, summary",[1],completely negative
same,time to first request for rescue medication (in words),[5]; 0.5% levobupivacaine group vs no block group,significantly longer
same,patients requiring at least one dose of rescue analgesia,"[5]; 0.5% levobupivacaine group, no block 73.3%, p=0.167",45%
same,median time to first request for rescue medication,"[5]; 0.5% levobupivacaine group, no block 31 minutes, p=0.041",at least 118 minutes
